Experimental data: patent US20030175350A1, “Enteric preparations containing physiologically active peptides” (priority 2000, published 2003)

What was measured:
[1] = Absorbability of compound (1) in cynomolgus monkey by oral administration of tablets; assay type: in vivo
Description: Blood was periodically collected, plasma was isolated, and then plasma concentration of unchanged was quantified with HPLC.

[2] = rat, in vivo, po; cited from earlier work

SMILES	Oral absorbability compared to rat and mouse [1]	Tmax compared to rat and mouse [1]	bioavailability [2] [%]
C[C@@H]1OC(=O)NC1C(=O)N[C@@H](Cc1cscn1)C(=O)N1CCC[C@H]1C (stereo partly drawn) [compound (1)]	decreased absorbability	markedly delayed Tmax	–
CN1C(=O)C[C@@H](C(=O)N[C@@H](Cc2c[nH]cn2)C(=O)N2CCC[C@H]2C(N)=O)NC1=O [taltirelin]	–	–	3.9
